What all share (type): cell-based
The test system of one assay is A549. The experiment in a line: Cancer cell viability, A549 (CellTiter-Glo). The conditions noted are these: Homo sapiens, 72 h, A549 cells, 3 days, read-out: Cellular IC50 (μM) A549. Summed up: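 A549 and/or LK-2 lung carcinoma cells seeded overnight (20 K/mL A549; 35 K/mL LK-2), then exposed to compound for 3 days. Viability read as CellTiter-Glo luminescence after 15 min lysis; data fitted to curves.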
(Cellular ATP, detected with luciferase, serves as a proxy for viable cell number.)

The test system of a further assay is LK-2. The experiment in a line: Cancer cell viability, LK-2 (CellTiter-Glo). The note with it: Homo sapiens, LK-2, 72 h, LK-2 cells, 3 days, read-out: Cellular IC50 (μM) LK-2. The procedure, abridged: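 A549 and LK-2 cells were seeded overnight at 20 K/mL and 35 K/mL respectively. They were then exposed for 3 days to nine three-fold dilutions, typically from 30 µM final. Viability was read as CellTiter-Glo luminescence after a 15 min lysis.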

For assay [1], the target named is T1, Nrf2 (Homo sapiens, UniProt Q16236).
T1 sequence (Q16236 1-605): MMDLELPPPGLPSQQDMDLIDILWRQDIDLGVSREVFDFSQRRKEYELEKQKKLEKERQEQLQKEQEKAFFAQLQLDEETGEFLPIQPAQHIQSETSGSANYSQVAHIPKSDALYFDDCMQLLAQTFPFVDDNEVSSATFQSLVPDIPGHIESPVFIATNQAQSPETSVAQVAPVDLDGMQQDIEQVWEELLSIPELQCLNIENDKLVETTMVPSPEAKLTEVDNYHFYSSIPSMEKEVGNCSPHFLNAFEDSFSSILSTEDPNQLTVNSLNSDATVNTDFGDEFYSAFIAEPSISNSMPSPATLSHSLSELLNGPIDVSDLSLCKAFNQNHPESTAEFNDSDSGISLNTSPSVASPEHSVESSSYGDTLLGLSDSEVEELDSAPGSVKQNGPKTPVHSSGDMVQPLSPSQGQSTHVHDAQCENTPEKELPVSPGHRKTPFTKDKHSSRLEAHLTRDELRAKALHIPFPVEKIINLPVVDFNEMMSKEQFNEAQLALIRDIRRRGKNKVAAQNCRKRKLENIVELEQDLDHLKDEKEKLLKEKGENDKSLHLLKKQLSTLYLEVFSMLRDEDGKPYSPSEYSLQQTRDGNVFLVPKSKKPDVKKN
The experiment in a line: Protein degradation assay in huH1 cells by Western blot. Also noted: tested for protein degradation in huH1 cells; host or cells: huH1 (Huh1) human hepatoma cells. As to the method: Representative Compounds of the Disclosure were tested for protein degradation in huH1 cells (Vendor: JCRB: Cat #JCRB0199; Description: Human hepatoma) by Western blot analysis according to the following general protocol.
Day 0: Plated the Huh1 cells into 10-cm dishes (1.5×10^6/dish)
Day 1: Treated the cells with compounds at five concentrations, e.g., 0.01 μM, 0.04 μM, 0.11 μM, 0.33 μM and 1 μM; or 0.4 μM, 1.1 μM, 3.3 μM, 10 μM, and 30 μM.
Day 4: Harvested the cell pellets, spilt 1/3 of the pellet to extract RNA by Nucleospin RNA plus kit and measure Nrf2 and GPX2 by RT-PCR, the remaining 2/3 of the pellet to run Western blot analysis.
• a) Cell samples were lysed with lysis buffer (1×Cell lysis buffer added Protease inhibitor and phosphatase inhibitor) on ice for 5˜10 min and spun at 15,000 rpm in an Eppendorf microfuge for 15 min at 4° C. • b) The protein supernatant was collected in a new 1.5 ml tube and the protein concentrations were determined by the Pierce BCA kit (Thermo #23225). • c) Mixed protein sample with 5×SDS-PAGE loading buffer. • d) Boiled for 5 min. • e) Cooled at RT or on ice for 5 min. • f) Flash spun to bring down condensation prior to loading gel.
• a) After flash spinning the samples, 20 μg protein were loaded into the wells. • b) Using SDS-PAGE running buffer. • c) Run with Constant Voltage (70 V) for 1.5-2 hr. Membrane transfer • a) Assembled “sandwich” for Invitrogen iBlot. • b) Transferred for 9 min using P0 program. • c) Immersed membrane in Odyssey blocking buffer or 5% BSA for at least 1 hr.
• a) Incubated with 1st Antibody 1:500 diluted in blocking buffer overnight at 4° C. • b) Washed 4×15 min with 0.05-0.1% Tween 20 in TBS. • c) Incubated with secondary antibody 1:10K diluted in blocking buffer for at least 1 hr at RT. • d) Washed 3×15 min with 0.05-0.1% Tween 20 in TBS. • e) Detected with ODYSSEY (Li—COR) The results are provided in Table 5.

Assay [2] has as its target T1, Nrf2. The experiment in a line: Nrf2 degradation in A549 HiBiT-Nrf2 cells, Nano-Glo HiBiT lytic detection (HiBiT readout). Also noted: host or cells: A549 HiBiT-Nrf2 cells (engineered line bought from Promega). The procedure, abridged:
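A549 HiBiT-Nrf2 cells seeded at 5,000 cells/well in Ham's F-12 with 10% FBS, then treated next day for 6 h and 20 h at 37 °C, 5% CO2. Nrf2 degradation read by Nano-Glo HiBiT lytic luminescence after 30 min at room temperature; staurosporine served as control.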
For orientation: The HiBiT peptide binds its large partner to form an active luciferase.

The mark [3] stands for this setting: X marks the class 0.1-1 μM, read-out: DC50 huHI1 cells 0.1-1 μM.
Setting [4] is: X marks the class >10 μM, read-out: DC50 huHI1 cells >10 μM.

As for `Cc1ccccc1C(=O)N1CCc2cc(-c3nc(NC(=O)Cc4cccc(OCCOCCNc5cccc6c5C(=O)N(C5CCC(=O)NC5=O)C6=O)c4)sc3C)ccc21` (centres unmarked) [Cpd. No. 1, 2-(3-(2-(2-((2-(2,6-dioxopiperidin-3-yl)-1,3-dioxoisoindolin-4-yl)amino)ethoxy)ethoxy)phenyl)-N-(5-methyl-4-(1-(2-methylbenzoyl)indolin-5-yl)thiazol-2-yl)acetamide], the concentration for half-maximal inhibition (IC50) (in general, the concentration at which inhibition is half-maximal) in the assay with A549 stood at 0.1 µM; in the assay on LK-2, 0.04 µM. The DC50 (in general, the concentration at which degradation of the target reaches its halfway point) at Nrf2 [1] (setting [3]) lay within 0.1 to 1 µM.
On to `Cc1ccccc1C(=O)N1CCc2cc(-c3nc(NC(=O)Cc4cccc(OCCOCCOCCNc5cccc6c5C(=O)N(C5CCC(=O)NC5=O)C6=O)c4)sc3C)ccc21` (centres unmarked) [Cpd. No. 2, 2-(3-(2-(2-(2-((2-(2,6-dioxopiperidin-3-yl)-1,3-dioxoisoindolin-4-yl)amino)ethoxy)ethoxy)ethoxy)phenyl)-N-(5-methyl-4-(1-(2-methylbenzoyl)indolin-5-yl)thiazol-2-yl)acetamide], for which, in the assay with A549, the IC50 is over 30 µM. For the same compound, on Nrf2 [1] (setting [4]), the half-maximal degradation concentration (DC50) was over 10 µM.
With `Cc1ccccc1C(=O)N1CCc2cc(-c3nc(NC(=O)Cc4cccc(OCCOCCOCCOCCOCCOCCNc5cccc6c5C(=O)N(C5CCC(=O)NC5=O)C6=O)c4)sc3C)ccc21` (centres unmarked) [Cpd. No. 5, 2-(3-((17-((2-(2,6-dioxopiperidin-3-yl)-1,3-dioxoisoindolin-4-yl)amino)-3,6,9,12,15-pentaoxaheptadecyl)oxy)phenyl)-N-(5-methyl-4-(1-(2-methylbenzoyl)indolin-5-yl)thiazol-2-yl)acetamide], at Nrf2 [1] (setting [4]), the DC50 is over 10 µM.
Consider `Cc1ccccc1C(=O)N1CCc2cc(-c3nc(NC(=O)Cc4cccc(OCCOCCOCCOc5cccc6c5C(=O)N(C5CCC(=O)NC5=O)C6=O)c4)sc3C)ccc21` (centres unmarked) [Cpd. No. 7, 2-(3-(2-(2-(2-((2-(2,6-dioxopiperidin-3-yl)-1,3-dioxoisoindolin-4-yl)oxy)ethoxy)ethoxy)ethoxy)phenyl)-N-(5-methyl-4-(1-(2-methylbenzoyl)indolin-5-yl)thiazol-2-yl)acetamide], for which, at Nrf2 [1] (X marks the class <100 nM, read-out: DC50 huHI1 cells <100 nM), the DC50 is under 0.1 µM.
With `Cc1ccccc1C(=O)N1CCc2cc(-c3nc(NC(=O)Cc4cccc(OCCOCCOCCOCCOc5cccc6c5C(=O)N(C5CCC(=O)NC5=O)C6=O)c4)sc3C)ccc21` (centres unmarked) [Cpd. No. 8, 2-(3-(2-(2-(2-(2-((2-(2,6-dioxopiperidin-3-yl)-1,3-dioxoisoindolin-4-yl)oxy)ethoxy)ethoxy)ethoxy)ethoxy)phenyl)-N-(5-methyl-4-(1-(2-methylbenzoyl)indolin-5-yl)thiazol-2-yl)acetamide], the DC50 on Nrf2 [1] (setting [4]) was over 10 µM.
Regarding `Cc1ccccc1C(=O)N1CCc2cc(-c3nc(NC(=O)Cc4cccc(OCCOCCOc5cccc6c5C(=O)N(C5CCC(=O)NC5=O)C6=O)c4)sc3C)ccc21` (centres unmarked) [Cpd. No. 12, 2-(3-(2-(2-((2-(2,6-dioxopiperidin-3-yl)-1,3-dioxoisoindolin-4-yl)oxy)ethoxy)ethoxy)phenyl)-N-(5-methyl-4-(1-(2-methylbenzoyl)indolin-5-yl)thiazol-2-yl)acetamide], the concentration for half-maximal inhibition (IC50) in the assay on A549 was about 30 µM; in the assay on LK-2, 0.3 µM. Besides, the DC50 was over 3000 nM on Nrf2 [2] (6 h, read-out: DC50 (nM) at 6 h); over 3000 nM on Nrf2 [2] (20 h, read-out: DC50 (nM) at 20 h); 0.1 to 1 µM at Nrf2 [1] (setting [3]).
In the case of `Cc1ccccc1C(=O)N1CCc2cc(-c3nc(NC(=O)Cc4cccc(OCCOCCOCCOCCOc5ccc6c(c5)C(=O)N(C5CCC(=O)NC5=O)C6=O)c4)sc3C)ccc21` (centres unmarked) [Cpd. No. 13, 2-(3-(2-(2-(2-(2-((2-(2,6-dioxopiperidin-3-yl)-1,3-dioxoisoindolin-5-yl)oxy)ethoxy)ethoxy)ethoxy)ethoxy)phenyl)-N-(5-methyl-4-(1-(2-methylbenzoyl)indolin-5-yl)thiazol-2-yl)acetamide], at Nrf2 [1] (setting [3]), the DC50 was 0.1 to 1 µM.

The values above are taken from patent US20260055097A9, “NRF2 PROTEIN DEGRADERS” (Ganymede Oncology, Inc., priority 2022, published 2026).
